Residue numbers refer to the chain shown, from its start. Each block holds one compound with its values, some of them ahead of it.
Experiments:
[1] = biological target: T1, Phosphomannomutase 2 (F119L-PMM2) (Homo sapiens, UniProt O15305, F119L); test: activation of purified enzyme; format: biochemical
T1 sequence (O15305 1-246 F119L): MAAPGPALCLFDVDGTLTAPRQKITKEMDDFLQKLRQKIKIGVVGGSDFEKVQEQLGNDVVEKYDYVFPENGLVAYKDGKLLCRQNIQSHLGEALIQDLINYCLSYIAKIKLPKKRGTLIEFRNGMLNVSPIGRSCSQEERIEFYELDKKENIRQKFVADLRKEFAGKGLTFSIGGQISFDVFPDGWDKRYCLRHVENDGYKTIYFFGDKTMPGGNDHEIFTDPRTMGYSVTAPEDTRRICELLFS

[2] = biological target: T2, Phosphomannomutase 2 (wt-PMM2) (Homo sapiens, UniProt O15305); test: activation of purified enzyme; format: biochemical
T2 sequence (O15305 1-246): T1 sequence (O15305 1-246 F119L) with L119F

[3] = biological target: T2, Phosphomannomutase 2 (wt-PMM2); test: thermal shift, size exclusion chromatography; format: binding
[4] = biological target: T2, Phosphomannomutase 2 (wt-PMM2); test: thermal shift assay; format: binding

EC50 [1]: 36 µM | EC50 [2]: 10 µM
Compound: O=P(O)(O)OC[C@H]1O[C@H](OP(=O)(O)O)[C@H](O)[C@@H](O)[C@@H]1O [Glc-1,6-P2, glucose-1,6-bisphosphate]

Compound: O=P(O)(O)OC[C@H]1OC(O)[C@H](O)[C@@H](O)[C@@H]1O (stereo partly drawn) [Glc-6-P, D-glucose 6-phosphate]
thermal shift, size exclusion chromatography (dimer stabilization) [3]: Glc-1-P and Glc-6-P produce a small, but statistically significant increase of the midpoint temperature

Compound: O=P(O)(O)OC[C@H]1O[C@H](OP(=O)(O)O)[C@@H](O)[C@@H](O)[C@@H]1O [Man-1,6-P2, mannose 1,6-bisphosphate]
thermal shift assay [4]: Glc-1,6-P2 is slightly more effective than Man-1,6-P2 (Table S1)

Reference: paper PMC3893156 (Molecular Genetics & Genomic Medicine, 2013)
